# Laboratory results from paper PMC4664966, “Discovery and characterization of novel inhibitors of the sodium-coupled citrate transporter (NaCT or SLC13A5)” (Scientific Reports, 2015).
# Entries after “also recorded” stand apart in the source; their conditions may differ.
# Experiments:
# [1] = target: Cytochrome P450 2C9 (CYP2C9) (Homo sapiens, UniProt P11712); test: Selectivity data (Table S1); assay type: in vitro ADME
# [2] = target: CYP2C9 (Homo sapiens, UniProt P11712); test: Selectivity data (Table S1); assay type: in vitro ADME; conditions: 3 µM
# [3] = target: Cyclooxygenase 2 (prostaglandin endoperoxide synthase 2) (Homo sapiens, UniProt P35354); test: Selectivity data (Table S1); assay type: biochemical
# [4] = pKa; assay type: physicochemical
# [5] = target: CYP1A2 (Homo sapiens, UniProt P05177); test: Selectivity data (Table S1); assay type: in vitro ADME; conditions: 3 µM
# [6] = target: Cytochrome P450 1A2 (CYP1A2) (Homo sapiens, UniProt P05177); test: Selectivity data (Table S1); assay type: in vitro ADME
# [7] = target: Serotonin receptor 2B (5-HT2B) (Homo sapiens, UniProt P41595); test: Selectivity data (Table S1); assay type: binding
# [8] = target: Histamine receptor (H3) (Homo sapiens, UniProt Q9Y5N1); test: Selectivity data (Table S1); assay type: binding
# [9] = target: Glucocorticoid receptor (GR) (Homo sapiens, UniProt P04150); test: Selectivity data (Table S1); assay type: binding
# [10] = target: Mitogen-activated protein kinase 14 (MAPK14 / P38-alpha) (Homo sapiens, UniProt Q16539); test: Selectivity data (Table S1); assay type: biochemical
# [11] = target: Muscarinic acetylcholine receptor 1 (M1) (Homo sapiens, UniProt P11229); test: Selectivity data (Table S1); assay type: binding
# [12] = target: Monoacylglycerol acyltransferase 3 (MGAT3) (Homo sapiens, UniProt Q86VF5); test: Selectivity data (Table S1); assay type: biochemical
# [13] = Plasma fraction unbound; assay type: in vitro ADME; conditions: mouse, read-out: mouse plasma fu
# [14] = target: Phosphodiesterase 4D3 (PDE4D3) (Homo sapiens, UniProt Q08499); test: Selectivity data (Table S1); assay type: biochemical
# [15] = Passive permeability, MDCK-LE cell monolayer; assay type: in vitro ADME; conditions: dog; MDCK-LE cell monolayer; read-out: Papp (apparent passive permeability)
# Procedure: Passive permeability was assessed using MDCK-LE cell monolayer as described previously in Di et al., (2011)[44].
# [16] = test system: HEK-293 parental cells; test: Intracellular concentration of compound in HEK-293 parental cells; assay type: in vitro ADME, human; conditions: 1 hour incubation; data not shown
# [17] = target: Serotonin receptor 4e (5-HT4e) (Homo sapiens, UniProt Q13639); test: Selectivity data (Table S1); assay type: binding
# [18] = target: Adrenergic receptor, beta-2(ADRB2) (Homo sapiens, UniProt P07550); test: Selectivity data (Table S1); assay type: binding
# [19] = target: Nicotinic acetylcholine receptor complex (alpha-4 / beta-2) (Homo sapiens, UniProt P17787+P43681); test: Selectivity data (Table S1); assay type: binding
# [20] = target: Phosphodiesterase 3A1 (PDE3A1) (Homo sapiens, UniProt Q14432); test: Selectivity data (Table S1); assay type: biochemical
# [21] = Genetic toxicity assays
# [22] = target: Monoacylglycerol acyltransferase 2 (MGAT2) (Homo sapiens, UniProt Q3SYC2); test: Selectivity data (Table S1); assay type: biochemical
# [23] = Intra-/extracellular unbound concentration ratio (Kpuu) in HEKNaCT cells; assay type: in vitro ADME; conditions: human, ratio of free intracellular and media concentration after 1 h incubation at 1 μM, geometric mean of 3 replicates ± SD
# Procedure: kpuu values were determined by measuring total cell and media concentrations corrected for their respective fraction unbound. Detailed methods to determine intra- and extracellular concentrations of compound in the HEKNaCT cells and human hepatocytes will be the subject of a separate manuscript that is under preparation. […]
# Intra- and extracellular concentrations of compound in cellular assays. kpuu values were determined by measuring total cell and media concentrations corrected for their respective […]
# fraction unbound. […]
# The solution was heated to reflux until the total volume was reduced to ~25 mL.
# Hexane (25 mL) was added and the mixture was brought back to reflux than allowed to slowly cool to room temperature. After standing at room temperature for 16 h, the resulting suspension was filtered and dried under high vacuum to yield (S)-2-(4-(tert-butyl)phenethyl)-2-hydroxysuccinic acid (3) as a white solid. The filtrate was allowed to stand at room temperature for 4 days. The solvent evaporated to ~15 mL and large, colorless crystals formed.
# X-ray analysis. Data collection was performed on a Bruker APEX diffractometer at room temperature. Data collection consisted of 3 omega scans and low angle and three at high angle; each with 0.5 step. In addition, 2 phi scans were collected to improve the quality of the […]
# [24] = Steady state intravenous infusion in rat, tissue distribution
# [25] = target: Abelson murine leukemia viral oncogene homolog 1 (ABL1) (Homo sapiens, UniProt P00519); test: Selectivity data (Table S1); assay type: biochemical
# [26] = target: Epidermal growth factor receptor (EGFR) (Homo sapiens, UniProt P00533); test: Selectivity data (Table S1); assay type: binding
# [27] = target: Serotonin receptor 3 (5-HT3) (Homo sapiens, UniProt P46098); test: Selectivity data (Table S1); assay type: binding
# [28] = target: Peroxisome proliferator activated receptor gamma (PPAR-gamma) (Homo sapiens, UniProt P37231); test: Selectivity data (Table S1); assay type: binding
# [29] = test system: HepG2 cells; test: Cellular toxicity in HepG2 cells; assay type: cell-based; conditions: concentrations up to 300 μM and 72 hours incubation
# [30] = target: Adrenergic receptor, alpha-2A (ADRA2A) (Homo sapiens, UniProt P08913); test: Selectivity data (Table S1); assay type: binding
# [31] = target: Proto-oncogene tyrosine-protein kinase (SRC) (Homo sapiens, UniProt P12931); test: Selectivity data (Table S1); assay type: biochemical
# Cyclooxygenase 2 (prostaglandin endoperoxide synthase 2), sequence (P35354 18-604): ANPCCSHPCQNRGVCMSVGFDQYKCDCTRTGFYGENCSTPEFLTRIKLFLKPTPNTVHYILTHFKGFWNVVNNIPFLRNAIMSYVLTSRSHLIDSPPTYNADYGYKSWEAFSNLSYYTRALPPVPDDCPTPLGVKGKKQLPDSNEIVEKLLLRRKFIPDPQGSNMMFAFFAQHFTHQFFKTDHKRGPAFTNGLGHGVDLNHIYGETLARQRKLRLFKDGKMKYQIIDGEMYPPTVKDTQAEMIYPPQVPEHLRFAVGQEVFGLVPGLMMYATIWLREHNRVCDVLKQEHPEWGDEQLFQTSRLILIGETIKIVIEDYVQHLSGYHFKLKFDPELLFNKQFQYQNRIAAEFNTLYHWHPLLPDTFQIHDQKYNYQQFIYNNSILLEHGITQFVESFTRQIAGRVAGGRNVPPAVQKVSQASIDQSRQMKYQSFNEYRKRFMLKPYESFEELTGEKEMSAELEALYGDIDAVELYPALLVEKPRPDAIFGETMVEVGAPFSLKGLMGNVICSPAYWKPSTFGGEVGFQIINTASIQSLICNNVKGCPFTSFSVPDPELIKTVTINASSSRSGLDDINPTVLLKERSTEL
# CYP1A2, sequence (P05177 whole entry): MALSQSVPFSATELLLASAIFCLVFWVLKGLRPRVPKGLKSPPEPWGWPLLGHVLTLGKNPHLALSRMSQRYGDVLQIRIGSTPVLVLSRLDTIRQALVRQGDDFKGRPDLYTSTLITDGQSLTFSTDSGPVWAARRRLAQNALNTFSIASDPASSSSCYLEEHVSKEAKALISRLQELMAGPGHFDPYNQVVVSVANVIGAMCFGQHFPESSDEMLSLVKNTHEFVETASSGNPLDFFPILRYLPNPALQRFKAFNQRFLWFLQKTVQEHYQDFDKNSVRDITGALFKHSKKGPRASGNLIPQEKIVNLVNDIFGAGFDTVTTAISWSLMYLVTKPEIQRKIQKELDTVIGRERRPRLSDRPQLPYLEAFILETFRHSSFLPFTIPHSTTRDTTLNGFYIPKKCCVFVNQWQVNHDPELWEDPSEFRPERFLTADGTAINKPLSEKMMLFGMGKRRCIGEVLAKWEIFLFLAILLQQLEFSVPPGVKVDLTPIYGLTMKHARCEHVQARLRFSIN
# Cytochrome P450 1A2 (CYP1A2), sequence (P05177 whole entry): as above
# Mitogen-activated protein kinase 14 (MAPK14 / P38-alpha), sequence (Q16539 whole entry): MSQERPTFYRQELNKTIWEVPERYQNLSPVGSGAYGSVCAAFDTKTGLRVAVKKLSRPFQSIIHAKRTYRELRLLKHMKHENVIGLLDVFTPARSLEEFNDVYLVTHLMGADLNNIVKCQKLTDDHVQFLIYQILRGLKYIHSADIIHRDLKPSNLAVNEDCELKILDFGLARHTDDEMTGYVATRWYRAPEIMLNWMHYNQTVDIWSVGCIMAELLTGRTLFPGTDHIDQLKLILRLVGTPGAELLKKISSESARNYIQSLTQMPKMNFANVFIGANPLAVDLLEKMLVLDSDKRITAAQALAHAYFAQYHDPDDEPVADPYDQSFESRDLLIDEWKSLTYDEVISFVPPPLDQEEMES
# Abelson murine leukemia viral oncogene homolog 1 (ABL1), sequence (P00519 whole entry): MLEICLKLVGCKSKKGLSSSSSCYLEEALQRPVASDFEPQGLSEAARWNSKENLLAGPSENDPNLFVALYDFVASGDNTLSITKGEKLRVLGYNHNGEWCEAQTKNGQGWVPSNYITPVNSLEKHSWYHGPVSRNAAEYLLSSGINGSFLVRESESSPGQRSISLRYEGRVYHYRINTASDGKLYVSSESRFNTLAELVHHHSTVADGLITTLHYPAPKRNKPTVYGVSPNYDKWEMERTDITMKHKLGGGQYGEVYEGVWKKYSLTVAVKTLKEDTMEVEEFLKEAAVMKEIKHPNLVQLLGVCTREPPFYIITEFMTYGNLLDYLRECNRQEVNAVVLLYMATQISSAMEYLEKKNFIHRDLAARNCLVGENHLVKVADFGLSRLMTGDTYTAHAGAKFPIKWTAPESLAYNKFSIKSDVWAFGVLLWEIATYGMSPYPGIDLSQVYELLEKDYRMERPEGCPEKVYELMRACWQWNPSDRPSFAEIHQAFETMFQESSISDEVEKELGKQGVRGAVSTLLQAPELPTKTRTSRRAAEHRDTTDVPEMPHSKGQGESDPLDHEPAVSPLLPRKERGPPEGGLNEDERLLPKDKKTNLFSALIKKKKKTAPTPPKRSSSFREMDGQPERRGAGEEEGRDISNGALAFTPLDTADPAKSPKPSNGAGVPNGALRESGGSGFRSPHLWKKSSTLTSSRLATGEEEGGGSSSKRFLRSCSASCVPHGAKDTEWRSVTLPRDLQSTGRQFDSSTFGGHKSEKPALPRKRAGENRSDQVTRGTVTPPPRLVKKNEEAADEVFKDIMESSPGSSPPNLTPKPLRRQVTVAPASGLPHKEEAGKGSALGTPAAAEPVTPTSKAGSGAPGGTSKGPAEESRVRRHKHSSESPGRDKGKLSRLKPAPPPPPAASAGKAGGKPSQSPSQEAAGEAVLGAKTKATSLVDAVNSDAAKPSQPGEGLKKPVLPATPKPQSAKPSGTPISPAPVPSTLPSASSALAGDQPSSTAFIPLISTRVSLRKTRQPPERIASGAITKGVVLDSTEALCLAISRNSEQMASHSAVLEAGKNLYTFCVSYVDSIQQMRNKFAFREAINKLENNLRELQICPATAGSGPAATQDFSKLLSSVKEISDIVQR
# Monoacylglycerol acyltransferase 2 (MGAT2), sequence (Q3SYC2 whole entry): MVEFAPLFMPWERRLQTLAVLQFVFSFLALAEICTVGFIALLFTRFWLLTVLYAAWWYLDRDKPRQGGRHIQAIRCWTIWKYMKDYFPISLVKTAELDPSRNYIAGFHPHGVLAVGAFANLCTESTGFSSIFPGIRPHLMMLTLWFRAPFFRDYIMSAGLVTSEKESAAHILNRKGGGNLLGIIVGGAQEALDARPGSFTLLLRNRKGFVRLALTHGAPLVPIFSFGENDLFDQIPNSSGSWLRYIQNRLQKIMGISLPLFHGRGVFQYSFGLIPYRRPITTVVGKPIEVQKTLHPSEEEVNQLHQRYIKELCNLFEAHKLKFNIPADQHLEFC
# Serotonin receptor 3 (5-HT3), sequence (P46098 24-478): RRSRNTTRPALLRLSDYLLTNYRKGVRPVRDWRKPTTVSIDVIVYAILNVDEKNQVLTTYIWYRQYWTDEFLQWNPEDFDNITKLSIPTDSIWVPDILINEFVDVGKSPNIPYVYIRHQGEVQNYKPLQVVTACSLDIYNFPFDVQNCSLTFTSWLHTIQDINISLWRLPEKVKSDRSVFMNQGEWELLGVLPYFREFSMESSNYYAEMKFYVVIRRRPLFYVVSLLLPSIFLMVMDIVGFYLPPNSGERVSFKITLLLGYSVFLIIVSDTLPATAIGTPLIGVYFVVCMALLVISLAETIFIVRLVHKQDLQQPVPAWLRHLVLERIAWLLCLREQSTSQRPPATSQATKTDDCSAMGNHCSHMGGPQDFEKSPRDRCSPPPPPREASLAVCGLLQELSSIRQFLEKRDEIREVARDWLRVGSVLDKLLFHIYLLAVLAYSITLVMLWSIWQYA
# Serotonin receptor 2B (5-HT2B), sequence (P41595 whole entry): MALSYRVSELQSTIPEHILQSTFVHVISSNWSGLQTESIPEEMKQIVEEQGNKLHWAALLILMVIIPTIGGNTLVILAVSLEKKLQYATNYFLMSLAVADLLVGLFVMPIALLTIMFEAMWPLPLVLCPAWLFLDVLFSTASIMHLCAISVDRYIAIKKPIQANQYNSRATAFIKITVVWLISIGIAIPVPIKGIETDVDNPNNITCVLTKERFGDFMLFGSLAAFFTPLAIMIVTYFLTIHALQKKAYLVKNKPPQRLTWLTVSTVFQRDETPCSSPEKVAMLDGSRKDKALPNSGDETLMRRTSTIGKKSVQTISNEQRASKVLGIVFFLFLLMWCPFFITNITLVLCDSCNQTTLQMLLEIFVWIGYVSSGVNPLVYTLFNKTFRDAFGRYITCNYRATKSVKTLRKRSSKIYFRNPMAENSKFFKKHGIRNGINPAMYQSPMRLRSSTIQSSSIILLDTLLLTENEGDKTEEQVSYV
# Muscarinic acetylcholine receptor 1 (M1), sequence (P11229 whole entry): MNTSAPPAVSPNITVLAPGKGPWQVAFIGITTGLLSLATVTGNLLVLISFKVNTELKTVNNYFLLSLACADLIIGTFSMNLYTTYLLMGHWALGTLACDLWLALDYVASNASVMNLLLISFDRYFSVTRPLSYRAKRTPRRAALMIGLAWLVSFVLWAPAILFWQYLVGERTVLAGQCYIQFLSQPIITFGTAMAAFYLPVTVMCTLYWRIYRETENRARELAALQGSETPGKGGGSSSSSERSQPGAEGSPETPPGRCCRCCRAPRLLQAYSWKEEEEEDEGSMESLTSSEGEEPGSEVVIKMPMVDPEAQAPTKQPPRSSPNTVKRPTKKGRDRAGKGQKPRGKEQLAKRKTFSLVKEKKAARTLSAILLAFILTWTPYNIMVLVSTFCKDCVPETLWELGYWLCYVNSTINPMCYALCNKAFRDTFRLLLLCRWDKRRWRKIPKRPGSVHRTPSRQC
# Adrenergic receptor, beta-2(ADRB2), sequence (P07550 whole entry): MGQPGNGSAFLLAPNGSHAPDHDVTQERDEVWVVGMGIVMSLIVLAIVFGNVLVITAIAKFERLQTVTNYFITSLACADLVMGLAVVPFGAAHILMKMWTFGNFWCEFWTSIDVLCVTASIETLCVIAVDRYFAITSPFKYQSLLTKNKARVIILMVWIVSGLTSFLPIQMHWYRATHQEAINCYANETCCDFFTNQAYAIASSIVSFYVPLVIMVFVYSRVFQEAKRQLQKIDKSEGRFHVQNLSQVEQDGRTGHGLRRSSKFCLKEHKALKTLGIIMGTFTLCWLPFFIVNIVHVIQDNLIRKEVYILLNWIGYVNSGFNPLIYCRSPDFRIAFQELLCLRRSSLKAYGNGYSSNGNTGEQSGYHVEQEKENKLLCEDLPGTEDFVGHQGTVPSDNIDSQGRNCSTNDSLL
compound,measurement,setting,value
CC(C)(C)c1ccc(CC[C@@](O)(CC(=O)O)C(=O)O)cc1 [Compound 2],interaction/inhibition of CYP2C9,[1],no significant interaction/inhibition
same,inhibition at 3 µM,[2],< 10%
same,inhibition at 100 µM,[3],22%
same,pKa,[4],3.1
same,inhibition at 3 µM,[5],< 10%
same,interaction/inhibition of CYP1A2,[6],no significant interaction/inhibition
same,inhibition at 100 µM,[7],< 10%
same,inhibition at 100 µM,[8],< 10%
same,inhibition at 100 µM,[9],< 10%
same,inhibition at 100 µM,[10],< 10%
same,inhibition at 100 µM,[11],< 10%
same,IC50,[12],> 50 µM
same,fraction unbound,[13],0.26
same,IC50,[14],> 30 µM
same,Papp,[15],1.4 ×10⁻⁶ cm/s
same,intracellular level in HEK-293 parental cells,[16],not detected at significant levels
same,inhibition at 100 µM,[17],< 10%
same,inhibition at 100 µM,[18],< 10%
same,inhibition at 100 µM,[19],< 10%
same,IC50,[20],> 30 µM
same,genetic toxicity,[21],negative
same,IC50,[22],> 50 µM
same,"Kp uu at 1 h, 1 µM",[23],29 ± 5
same,brain penetration,[24]; steady state intravenous infusion,minimal brain penetration; also recorded: restricted in the brain
same,uptake in liver and kidney compared to plasma,[24]; steady state intravenous infusion 0.27mg/kg/hour,significant uptake of the compound in the liver and kidney
same,inhibition at 100 µM,[25],< 10%
same,inhibition at 100 µM,[26],< 10%
same,inhibition at 100 µM,[27],< 10%
same,inhibition at 100 µM,[28],< 10%
same,cellular toxicity,[29],no observable toxicity
same,inhibition at 100 µM,[30],< 10%
same,inhibition at 100 µM,[31],< 10%
